Some results are limits rather than exact numbers.

The test deals with Proto-oncogene tyrosine-protein kinase Src (Homo sapiens, UniProt P12931). Put plainly: The compound was evaluated for its binding affinity towards phosphotyrosine binding pocket of Src protein tyrosine kinase SH2 domain.
Chain of Proto-oncogene tyrosine-protein kinase Src (P12931 2-536 limits assumed): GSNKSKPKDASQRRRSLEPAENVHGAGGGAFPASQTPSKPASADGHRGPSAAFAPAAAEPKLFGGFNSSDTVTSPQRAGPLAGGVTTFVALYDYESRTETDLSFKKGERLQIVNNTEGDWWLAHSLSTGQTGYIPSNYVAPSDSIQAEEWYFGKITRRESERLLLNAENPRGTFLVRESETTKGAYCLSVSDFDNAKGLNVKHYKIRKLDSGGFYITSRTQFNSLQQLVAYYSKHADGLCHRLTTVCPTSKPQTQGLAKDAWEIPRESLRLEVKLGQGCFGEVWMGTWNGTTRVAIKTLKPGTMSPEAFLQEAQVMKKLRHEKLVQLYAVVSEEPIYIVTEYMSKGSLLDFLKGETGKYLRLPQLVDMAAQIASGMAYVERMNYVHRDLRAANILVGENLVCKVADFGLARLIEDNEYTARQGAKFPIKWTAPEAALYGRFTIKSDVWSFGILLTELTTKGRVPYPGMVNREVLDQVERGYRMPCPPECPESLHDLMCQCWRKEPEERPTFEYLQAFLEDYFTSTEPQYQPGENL
Consider `O=Cc1cccc(C=O)c1OP(=O)(O)O`, for which the IC50 stood at 0.5 mM.
For `CC(=O)c1ccc2ccccc2c1OP(=O)(O)O` the value was 3.5 mM; for `O=P(O)(O)C(O)c1ccccc1` (stereo not drawn) [ALPHA HYDROXY BENZYLPHOSPHONATE], above 10 mM; for `O=C(O)c1ccccc1OP(=O)(O)O` [FOSFOSAL], 2 mM.
For `Cc1ccc(OP(=O)(O)O)cc1` the value was 2 mM.
On to `O=C(Nc1ccccc1OC(F)(F)F)P(=O)(O)O`, for which the IC50 was found to be 4 mM.
On to `CCCCOc1ccc(NC(=O)P(=O)(O)O)cc1`, for which the IC50 was determined as 3.9 mM.
For `CC(C)c1ccc(C(O)P(=O)(O)O)cc1` (stereo not drawn) the value was above 10 mM.
For `COc1cc(NC(=O)P(=O)(O)O)cc(OC)c1OC` the value was 2.1 mM; for `COP(=O)(O)Oc1ccccc1C=O`, 3.3 mM; for `COc1ccc(OP(=O)(O)O)cc1`, 4 mM.
For `CCCOc1ccc(C(O)P(=O)(O)O)cc1` (stereo not drawn) the value was 2.4 mM.
In turn, `O=P(O)(O)Oc1ccc(SC(F)(F)F)cc1` showed an IC50 of 1.2 mM.
For `CC(C)OP(=O)(O)Oc1ccccc1C=O` the value was 2.1 mM.
For `O=C(Nc1ccc(OCc2ccccc2)cc1)P(=O)(O)O` the value was 0.8 mM; for `COc1ccccc1C(O)P(=O)(O)O` (stereo not drawn), above 10 mM.
`O=P(O)(O)C(O)C1CCCCC1` (stereo not drawn): the IC50 was above 10 mM.
For `O=P(O)(O)Oc1cccc2cccnc12` the value was above 10 mM; for `O=P(O)(O)Oc1ccccc1Cl`, 3.5 mM.
`O=[N+]([O-])c1ccc(OP(=O)(O)O)cc1` [p-NITROPHENYLPHOSPHATE] yielded a half-inhibitory concentration (IC50) of 1 mM.
For `Cc1cccc(C)c1OP(=O)(O)O` the value was above 10 mM; for `CC(C)(C)c1ccc(OP(=O)(O)O)cc1`, 4 mM.
For `O=P(O)(O)Oc1ccccc1` [PHENYL DIHYDROGEN PHOSPHATE] the value was 2.5 mM.
For `O=Cc1ccccc1OP(=O)(O)O` the value was 0.2 mM; for `O=P(O)(O)C(O)c1ccc2ccccc2c1` (stereo not drawn), 4.4 mM.
For `COC(=O)c1ccc(OP(=O)(O)O)cc1`, the IC50 turned out to be 4 mM.
For `O=P(O)(O)Oc1ccc2ccccc2c1` the value was 1 mM; for `CCOC(=O)c1ccc(NC(=O)P(=O)(O)O)cc1`, 3.6 mM.
Regarding `O=C(NCc1ccccc1)P(=O)(O)O` [(BENZYLAMINO)CARBONYLPHOSPHONIC ACID], the half-maximal inhibitory concentration (IC50) is 4.4 mM.
For `Cc1cccc(OP(=O)(O)O)c1` the value was 4 mM.
`CCc1ccc(NC(=O)P(=O)(O)OCc2ccccc2)cc1`: the IC50 was above 5 mM.
For `Nc1ccc(OP(=O)(O)O)cc1` the value was 0.6 mM.
For `O=Cc1cccc(OP(=O)(O)O)c1` the value was 2.4 mM; for `O=P(O)(O)C(O)c1ccc(-c2ccccc2)cc1` (stereo not drawn), above 10 mM; for `O=P(O)(O)Oc1cccc2ccccc12`, 1 mM.
For `COC(=O)c1cccc(OP(=O)(O)O)c1` the value was 4 mM.
Regarding `O=C(NCCc1ccccc1)P(=O)(O)O` [PHENETHYLCARBAMOYLPHOSPHONIC ACID], the IC50 was above 5 mM.
Consider `COC(=O)c1cc2ccccc2cc1OP(=O)(O)O`, for which the IC50 worked out at 3.2 mM.

One may read the IC50 as the concentration that gives 50% inhibition. A high value points to lower potency.

For the origin of these results see ChEMBL document CHEMBL1135868, “Small ligands interacting with the phosphotyrosine binding pocket of the Src SH2 protein” (Bioorg Med Chem Lett, 2002).
